According to US20110294778A1, “HEPATITIS C INHIBITOR COMPOUNDS” (priority 2009, published 2011):

Tests used:
[1] = system: HCV genotype 1b (Con-1) subgenomic replicon with NS3 resistance mutation D168V in Huh-7 cells; assay: HCV replicon RNA replication assay (NS3 protease variants), genotype 1b D168V; type: cell-based; settings: Hepatitis C virus, Huh-7, 72 h, read-out: D168V 1b EC50 (nM)
[2] = system: HCV genotype 1a (strain H77) subgenomic replicon with NS3 resistance mutation R155K in Huh-7 cells; assay: HCV replicon RNA replication assay (NS3 protease variants), genotype 1a R155K; type: cell-based; settings: Hepatitis C virus, Huh-7, 72 h, read-out: R155K 1a EC50 (nM)

COc1ccc2c(O[C@@H]3C[C@H]4C(=O)N[C@]5(C(=O)NS(=O)(=O)C6(C)CC6)C[C@H]5/C=C\CCCCC[C@H](NC(=O)c5cc(C)n(C)n5)C(=O)N4C3)cc(OC(C)C)nc2c1C [Compound 1026, (2R,6S,12Z,13aS,14aR,16aS)-6-{[(1,5-dimethyl-1H-pyrazol-3-yl)carbonyl]amino}-2-{[7-methoxy-8-methyl-2-(propan-2-yloxy)quinolin-4-yl]oxy}-N-[(1-methylcyclopropyl)sulfonyl]-5,16-dioxo-1,2,3,6,7,8,9,10,11,13a,14,15,16,16a-tetradecahydrocyclopropa[e]pyrrolo[1,2-a][1,4]diazacyclopentadecine-14a(5H)-carboxamide]
EC50 [1]: 0.32 nM
EC50 [2]: 3.3 nM

COc1ccc2c(O[C@@H]3C[C@H]4C(=O)N[C@]5(C(=O)NS(=O)(=O)C6CC6)C[C@H]5/C=C\CCCCC[C@H](NC(=O)c5ccn(CCF)n5)C(=O)N4C3)cc(OC(C)C)nc2c1C [Compound 1031, (2R,6S,12Z,13aS,14aR,16aS)-N-(cyclopropylsulfonyl)-6-({[1-(2-fluoroethyl)-1H-pyrazol-3-yl]carbonyl}amino)-2-{[7-methoxy-8-methyl-2-(propan-2-yloxy)quinolin-4-yl]oxy}-5,16-dioxo-1,2,3,6,7,8,9,10,11,13a,14,15,16,16a-tetradecahydrocyclopropa[e]pyrrolo[1,2-a][1,4]diazacyclopentadecine-14a(5H)-carboxamide]
EC50 [1]: 0.39 nM
EC50 [2]: 4.2 nM

COc1ccc2c(O[C@@H]3C[C@H]4C(=O)N[C@]5(C(=O)NS(=O)(=O)C6(C)CC6)C[C@H]5/C=C\CCCCC[C@H](NC(=O)c5ccn(CC(F)(F)F)n5)C(=O)N4C3)cc(OC3CCC3)nc2c1C [Compound 1023, (2R,6S,12Z,13aS,14aR,16aS)-2-{[2-(cyclobutyloxy)-7-methoxy-8-methylquinolin-4-yl]oxy}-N-[(1-methylcyclopropyl)sulfonyl]-5,16-dioxo-6-({[1-(2,2,2-trifluoroethyl)-1H-pyrazol-3-yl]carbonyl}amino)-1,2,3,6,7,8,9,10,11,13a,14,15,16,16a-tetradecahydrocyclopropa[e]pyrrolo[1,2-a][1,4]diazacyclopentadecine-14a(5H)-carboxamide]
EC50 [1]: 0.25 nM
EC50 [2]: 8.2 nM

COc1ccc2c(O[C@@H]3C[C@H]4C(=O)N[C@]5(C(=O)NS(=O)(=O)C6(C)CC6)C[C@H]5/C=C\CCCCC[C@H](NC(=O)N5CCC(F)(F)C5)C(=O)N4C3)cc(OC(C)C)nc2c1C [Compound 2004, (2R,6S,12Z,13aS,14aR,16aS)-6-{[(3,3-difluoropyrrolidin-1-yl)carbonyl]amino}-2-{[7-methoxy-8-methyl-2-(propan-2-yloxy)quinolin-4-yl]oxy}-N-[(1-methylcyclopropyl)sulfonyl]-5,16-dioxo-1,2,3,6,7,8,9,10,11,13a,14,15,16,16a-tetradecahydrocyclopropa[e]pyrrolo[1,2-a][1,4]diazacyclopentadecine-14a(5H)-carboxamide]
EC50 [1]: 1.6 nM
EC50 [2]: 8.2 nM

COc1ccc2c(O[C@@H]3C[C@H]4C(=O)N[C@]5(C(=O)NS(=O)(=O)C6(C)CC6)C[C@H]5/C=C\CCCCC[C@H](NC(=O)N(C)C)C(=O)N4C3)cc(OC(C)C)nc2c1Br [Compound 2016, (2R,6S,12Z,13aS,14aR,16aS)-2-{[8-bromo-7-methoxy-2-(propan-2-yloxy)quinolin-4-yl]oxy}-6-[(dimethylcarbamoyl)amino]-N-[(1-methylcyclopropyl)sulfonyl]-5,16-dioxo-1,2,3,6,7,8,9,10,11,13a,14,15,16,16a-tetradecahydrocyclopropa[e]pyrrolo[1,2-a][1,4]diazacyclopentadecine-14a(5H)-carboxamide]
EC50 [1]: 1 nM
EC50 [2]: 2 nM

Cc1c(O)ccc2c(O[C@@H]3C[C@H]4C(=O)N[C@]5(C(=O)NS(=O)(=O)C6CC6)C[C@H]5/C=C\CCCCC[C@H](NC(=O)c5ccn(C)n5)C(=O)N4C3)cc(OC(C)C)nc12 [Compound 1037, (2R,6S,12Z,13aS,14aR,16aS)-N-(cyclopropylsulfonyl)-2-{[7-hydroxy-8-methyl-2-(propan-2-yloxy)quinolin-4-yl]oxy}-6-{[(1-methyl-1H-pyrazol-3-yl)carbonyl]amino}-5,16-dioxo-1,2,3,6,7,8,9,10,11,13a,14,15,16,16a-tetradecahydrocyclopropa[e]pyrrolo[1,2-a][1,4]diazacyclopentadecine-14a(5H)-carboxamide]
EC50 [1]: 3.7 nM
EC50 [2]: 4.3 nM

COc1ccc2c(O[C@@H]3C[C@H]4C(=O)N[C@]5(C(=O)NS(=O)(=O)C6(C)CC6)C[C@H]5/C=C\CCCCC[C@H](NC(=O)N5CC(OC)C5)C(=O)N4C3)cc(OC(C)C)nc2c1C [Compound 2003, (2R,6S,12Z,13aS,14aR,16aS)-6-{[(3-methoxyazetidin-1-yl)carbonyl]amino}-2-{[7-methoxy-8-methyl-2-(propan-2-yloxy)quinolin-4-yl]oxy}-N-[(1-methylcyclopropyl)sulfonyl]-5,16-dioxo-1,2,3,6,7,8,9,10,11,13a,14,15,16,16a-tetradecahydrocyclopropa[e]pyrrolo[1,2-a][1,4]diazacyclopentadecine-14a(5H)-carboxamide]
EC50 [1]: 0.47 nM
EC50 [2]: 9.1 nM

COc1ccc2c(O[C@@H]3C[C@H]4C(=O)N[C@]5(C(=O)NS(=O)(=O)C6CC6)C[C@H]5/C=C\CCCCC[C@H](NC(=O)c5ccno5)C(=O)N4C3)cc(OC(C)C)nc2c1C [Compound 1032, (2R,6S,12Z,13aS,14aR,16aS)-N-(cyclopropylsulfonyl)-2-{[7-methoxy-8-methyl-2-(propan-2-yloxy)quinolin-4-yl]oxy}-6-[(1,2-oxazol-5-ylcarbonyl)amino]-5,16-dioxo-1,2,3,6,7,8,9,10,11,13a,14,15,16,16a-tetradecahydrocyclopropa[e]pyrrolo[1,2-a][1,4]diazacyclopentadecine-14a(5H)-carboxamide]
EC50 [1]: 0.58 nM
EC50 [2]: 7.8 nM

Cc1c(O)ccc2c(O[C@@H]3C[C@H]4C(=O)N[C@]5(C(=O)NS(=O)(=O)C6(C)CC6)C[C@H]5/C=C\CCCCC[C@H](NC(=O)N(C)C)C(=O)N4C3)cc(OC(C)C)nc12 [Compound 2022, (2R,6S,12Z,13aS,14aR,16aS)-6-[(dimethylcarbamoyl)amino]-2-{[7-hydroxy-8-methyl-2-(propan-2-yloxy)quinolin-4-yl]oxy}-N-[(1-methylcyclopropyl)sulfonyl]-5,16-dioxo-1,2,3,6,7,8,9,10,11,13a,14,15,16,16a-tetradecahydrocyclopropa[e]pyrrolo[1,2-a][1,4]diazacyclopentadecine-14a(5H)-carboxamide]
EC50 [1]: 1.8 nM
EC50 [2]: 4.9 nM
